# Measured values as given in patent US20050123536A1, “Treatment of immunological disorders using anti-dc30 antibodies” (priority 2001, published 2005).
# Values joined by “and” are separate entries in the source; they are usually repeats but may differ in a detail not shown here. Identical values can stand only once. “Also recorded” adds a separate entry of the source.
# B1: HeFi-1: murine anti-CD30 mAb; variable regions SEQ ID NO:18 and 26 (antibody, listed as Mus musculus, V domains shown)
# VH: EVKLVESGGGLVQPGGSLRLSCATSGFTFSDYYMNWVRQPPGKALEWLGFIRNKANGYTTEFSASVMGRFTISRDDSQSILYLQMNTLRAEDSATYYCARDPPYGNPHYYAMDYWGQGTSVTVSS
# VL: DIVLTQSPASLAVSLGQRATISCRASKSVSASGYNYMHWYQQKAGQPPKLLIHLASNLESGVPARFSGSGSGTDFTLNIHPVEEEDASTYYCQHSGELPFTFGSGTKLEIK
# Experiments:
# [1] = test system: Jurkat T cells; assay: Jurkat T cell proliferation, 3H-TdR incorporation, anti-CD30 mAbs with or without secondary cross-linking Ab; type: cell-based, human; conditions: for inhibition of Jurkat T cell proliferation by immobilized mAb: mAb immobilized onto TC wells, data not shown; for inhibition of thymidine incorporation in Jurkat cells: secondary cross-linking antibody used
# Description: FIG. 2. […] Proliferation was assessed by a pulse of tritiated thymidine (^3H-TdR) during the last 4 hours of a 72 hour incubation.
# FIG. 3. […] Proliferation was assessed by a pulse of ^3H-TdR during the last 4 hours of a 48-hour incubation.
# The effect of signaling through CD30 by anti-CD30 on the proliferation of Jurkat T cells was assessed by tritiated thymidine (^3H-TdR) incorporation assays. Jurkat cells were treated with soluble anti-CD30 in graded doses or anti-CD30 cross-linked by a secondary cross-linking antibody (Ab). […] Final ratios of 1:2.5, 1:5, and 1:10 between the primary mAbs and secondary cross-linking antibodies were used. Antibody cocktails were allowed to incubate at room temperature for 15 minutes. Serial dilutions of these antibody cocktails in culture medium were then prepared to achieve the desired final concentrations. One hundred ill of antibody cocktails were then mixed with 100 μl Jurkat cell suspension containing 5000 cells in 96-well tissue culture (TC) plates. Cells were incubated with the antibody cocktails for 44 hours before a 4-hour pulse with 1 μCi of ^3H-TdR. Cells were then harvested onto filters, and incorporated tritiated thymidine was measured by scintillation counting. Thymidine incorporation values obtained from the treated cells were then compared to the untreated control cultures.
# [2] = test system: Jurkat T cells; assay: Cell cycle disposition, DNA synthesis and DNA fragmentation (apoptosis) by PI and anti-BrdU staining; type: cell-based, human; conditions: for DNA fragmentation in Jurkat cells: mAb cross-linked by goat anti-mouse IgG Fc, after 24 and 48 hours
# Description: The relationship between cell cycle status and DNA replication in Jurkat cells treated with cross-linked anti-CD30 in Abs was further investigated. […] The antibody cocktails were allowed to incubate at room temperature for 15 minutes. Serial 1:10 dilutions of these antibody cocktails in culture medium were then prepared. One ml of antibody cocktails was then mixed with 1 ml of Jurkat cell suspension containing 0.25×10^6 cells in 12-well TC plates.
# After 24 or 48 hours of incubation, cells were harvested by centrifugation and resuspended in 2 ml of fresh medium equilibrated at 37° C. Bromodeoxyuridine (BrdU) (Sigma, St. Louis, Mo.) was used to label cells that were actively synthesizing DNA. Twenty μl of 1 mM BrdU dissolved in water were added to the cell suspension, and the incubation continued at 37° C. for 15 minutes. Cells were then spun down, washed once with PBS, and resuspended in 0.5 ml of ice-cold PBS. One ml of 100% ethanol at −20° C. was added drop-wise to the cell suspension for cell fixation. After fixation at 4 C for 30 minutes, fixed cells were spun down. The cell pellets were resuspended in 1 ml of 2 M HCl with 0.5% Triton X-100 (Sigma) and incubated for 30 minutes at room temperature before cells were spun down. One ml of 0.1 M Na2B4O7 at pH 8.5 was used to resuspend the cell pellets and to neutralize the acid for 10 minutes at room temperature. Cells were then pelleted by centrifugation and washed once with PBS containing 0.5% Tween 20 (Sigma) and 1% BSA. […] Cells were then washed twice with PBS, 0.5% Tween 20, 1% BSA, and then resuspended in 0.5 ml of PBS containing 5 μg/ml of propidium iodide (PI) (Sigma) to quantify DNA contents in cells. […]
# Jurkat T cells were treated with either anti-CD30 mAb alone, anti-CD3 mAb, alone, or a combination of anti-CD30 and anti-CD3 mAbs. […] Cell cycle distribution was determined by BrdU and PI staining as in FIG. 4.
# [3] = test system: Jurkat T cells; assay: Apoptosis by Annexin V binding and permeability to PI; type: cell-based, human; conditions: primary mAb 2 μg/ml, 10-fold excess GAM
# Description: FIG. 7. […] Anti-CD30 and anti-CD3 mAbs were used at 2 μg/ml. GAM secondary Ab was used in 10-fold excess to cross-link the primary mAbs. Binding of FITC-conjugated Annexin V enabled the detection of cells undergoing apoptosis. Membrane permeability to PI was used to detect dead cells that had lost membrane integrity. In the figure, Annexin V^−/PI^− events represent live cells (lower left quadrant), Annexin V^+/PI^− events represent apoptotic cells (lower right quadrant), and Annexin V^+/PI^+ events represent dead cells (upper right quadrant). Numbers outside of the density plots denote the percentage of cells present in each of the quadrants.
# Primary mAbs were used at a final concentration of 2 μg/ml. A 10-fold excess of GA-M antibody was used to cross-link the primary antibodies. After an incubation of 15 minutes at room temperature, antibody cocktails were added to Jurkat cells. At the times designated in FIG. 7, percentages of apoptotic and dead cells in the cultures were determined by Annexin V binding and permeability to PI using the Annexin V-FITC Apoptosis Detection Kit I (BD PharMingen, San Diego, Calif.) according to the manufacturer's instruction. […]
# [4] = target: CD3 (human); assay: cell-based or functional assay
# [5] = test system: T lymphocyte clones 40E10 and 40H7; assay: Apoptosis induction in T cell clones by Annexin V binding and permeability to PI; type: cell-based, human; conditions: 1 μg/ml of ADC, 4S-hour incubation
# Description: FIG. 21. […] After 48 hr of incubation, Annexin V binding and permeability of PI were used to assess the extent of apoptosis induction.
# [6] = test system: activated naïve T lymphocytes (CD45RO-); assay: Proliferation of activated naïve T lymphocytes, 3H-TdR; type: cell-based, human; conditions: compared to memory T lymphocytes or T lymphocyte clones
# Description: As PBMC are made up of different subsets of lymphocytes, the response of one cellular subset toward cAC10 ADCs may easily be masked by other subsets. In order to examine this possibility, total T lymphocytes, naïve and memory T lymphocytes were enriched from PBMC by negative immuno-selection. Briefly, PBMCs were incubated with one of the following antibody cocktails, containing saturating quantities of antibodies, at a final concentration of 20×10^6 cells/ml on ice for 20 minutes. To enrich for total T lymphocytes, the antibody cocktail contained anti-CD 14 (BD PharMingen), anti-CD16 (BD PharMingen), and anti-CD20 (BD PharMingen). To enrich for naïve T lymphocytes (CD45RO^−), the antibody cocktail contained anti-CD14, anti-CD16, anti-CD20, and anti-CD45RO (BD PharMingen). To enrich for memory T lymphocytes (CD45RA^−), the antibody cocktail contained, anti-CD14, anti-CD16, anti-CD20, and anti-CD45RA (BD PharMingen). […]
# Activation-induced expression of CD30 on different T cell subsets was then examined. […] After 72 hours of incubation, the expression of CD30 on both CD4 and CDS cells in the different cultures was determined by flow cytometry, also as outlined in Example 6. Expression of CD30 was detected on both CD4 and CDS cells regardless of whether the starting population was total, naïve, or memory T lymphocytes (FIG. 12). […]
# [7] = test system: Jurkat T cells; assay: Growth inhibition of Jurkat T cells by ADC, 3H-TdR pulse; type: cell-based, human; conditions: 80 hours incubation + 16 hour 3H-TdR pulse
# Description: FIG. 9. […] Cells were exposed to the ADCs continuously for a total of 96 hr. Proliferation was assessed by a pulse of H-TdR during the last 16 hours of incubation.
# Five thousand Jurkat T cells in 100 μl of medium were seeded in 96-well TC plates. […] After 80 hours of incubation, cellular DNA synthesis was assessed by a 16 hour ^3H-TdR pulse.
# [8] = test system: 10 CD30+ T lymphocyte clones; assay: Summary of efficacies of cAC10 ADCs on proliferation of CD30+ T lymphocyte clones; type: cell-based, human; conditions: FIG. 23 summary
# Description: The following trend was observed. […] These clones have been expanded through multiple rounds of T cell receptor and cytokine stimulation, similar to chronically stimulated effector T cells involved in inflammatory and autoimmune responses.
# [9] = target: CD30 (human) (UniProt P28908); assay: cell-based or functional assay
# Sequence of CD30 (human) (P28908 19-595): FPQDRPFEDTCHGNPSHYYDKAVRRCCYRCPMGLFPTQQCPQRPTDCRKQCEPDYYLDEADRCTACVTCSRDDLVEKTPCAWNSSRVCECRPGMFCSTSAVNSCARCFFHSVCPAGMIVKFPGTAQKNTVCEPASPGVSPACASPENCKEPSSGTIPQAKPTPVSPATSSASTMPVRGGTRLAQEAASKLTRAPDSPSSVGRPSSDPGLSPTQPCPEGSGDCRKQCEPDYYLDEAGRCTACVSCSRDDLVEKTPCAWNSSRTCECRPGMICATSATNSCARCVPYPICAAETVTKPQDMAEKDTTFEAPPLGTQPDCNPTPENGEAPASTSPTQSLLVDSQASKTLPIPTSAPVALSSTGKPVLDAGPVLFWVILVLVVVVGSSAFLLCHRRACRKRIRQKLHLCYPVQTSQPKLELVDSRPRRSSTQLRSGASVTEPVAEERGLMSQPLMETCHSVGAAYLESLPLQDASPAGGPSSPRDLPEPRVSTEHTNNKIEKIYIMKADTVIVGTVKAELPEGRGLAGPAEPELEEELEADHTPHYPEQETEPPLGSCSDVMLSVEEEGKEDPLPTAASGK
molecule,measurement,setting,value
AC10: murine anti-CD30 mAb; variable regions SEQ ID NO:2 and 10,inhibition of Jurkat T cell proliferation by immobilized mAb,[1],active in inhibiting Jurkat T cell proliferation
same,inhibition of thymidine incorporation in Jurkat cells,[1],inhibited thymidine incorporation in Jurkat cell dose-dependently
same,DNA fragmentation in Jurkat cells,[2],detectable
same,apoptosis induction in Jurkat T cells (BrdU and PI staining),"[2]; single mAb cross-linked by goat anti-mouse IgG Fc, compared to medium control",induced apoptosis
same,earliest time of detectable apoptosis after incubation,[3],4 h
anti-CD3 mAb OKT3 (antibody),concentration giving the best synergy with AC10 for apoptosis in Jurkat T cells,[4],0.2 µg/mL
cAC10-fkMMAE: chimeric AC10 anti-CD30 antibody conjugated to MMAE via phenylalanine-lysine linker,cells either apoptotic or dead,[5],44-48%
cAC10-vcAEFP: chimeric AC10 anti-CD30 antibody conjugated to AEFP via valine-citrulline linker,sensitivity of naïve T lymphocytes to the ADC,[6],less sensitive; also recorded: most refractory
cAC10-vcMMAE: chimeric AC10 anti-CD30 antibody conjugated to MMAE via valine-citrulline linker,IC50,[7],approximately 0.1 μg/ml
same,concentrations that significantly inhibited DNA synthesis,[7],higher than 0.001 μg/ml
same,sensitivity of naïve T lymphocytes to the ADC,[6],relatively refractory; also recorded: most refractory
same,sensitivity of T lymphocyte clones compared to memory T lymphocytes,[8],eight of the 10 T lymphocyte clones were found to be more sensitive
cAC10: chimeric AC10 (cAC10) anti-CD30 mAb,concentration with growth inhibitory effect on Jurkat cells,"[1]; soluble, unconjugated (FIG. 2)",higher than 1 μg/ml
same,concentrations at which Jurkat cell proliferation was not inhibited,[1]; without secondary cross-linking,below 1 μg/ml
cIgG-fkMMAE (antibody),"percent of cells apoptotic or dead (Annexin V / PI), clones 40E10 and 40H7, 48 h with 1 µg/ml ADC (control for cAC10-fkMMAE)",[9],13% and 31%
same,proliferation of activated Th2 clones 40E10 and 40H7 (3H-TdR); concentration needed for inhibition (control ADC),[9],> 0.1 µg/mL
non-binding control IgG (cIgG)-vcMMAE (antibody),"Jurkat T cell DNA synthesis (3H-TdR), 96 h exposure; concentration needed for growth inhibition (control ADC)",[9],> 0.1 µg/mL
same,proliferation of activated Th2 clones 40E10 and 40H7 (3H-TdR); concentration needed for inhibition (control ADC),[9],> 2 µg/mL
B1,inhibition of Jurkat T cell proliferation by immobilized mAb,[1],active in inhibiting Jurkat T cell proliferation
same,inhibition of thymidine incorporation in Jurkat cells,[1],inhibited thymidine incorporation in Jurkat cell dose-dependently
same,DNA fragmentation in Jurkat cells,[2],detectable
same,earliest time of detectable apoptosis after incubation,[3],4 h
